# According to patent US11976098B2, “Cooked millet prolamin peptide for inhibiting alpha-amylase and alpha-glucosidase” (China Agricultural University, priority 2022, dated 2024):
# Test system: α-glucosidase
# Test: In vitro α-glucosidase inhibitory activity (PNPG, 405 nm)
# Assay type: biochemical
# Details: sample 0.5%, 37° C., pH 6.8
# Description: The method for determining α-glucosidase activity is as follows: First, the solution of substrate 4-Nitrophenyl […] (PNPG) with a concentration of 1.505 mg/mL (5 mmol/L of PNPG dissolved in 0.1 mol/L phosphate buffer with a pH of 6.8) was prepared, a Na2CO3 solution with a concentration of 0.2 mol/L was prepared, and α-glucosidase solution (0.8 U/ml of α-glucosidase dissolved in 0.1 mol/L phosphate buffer with a pH of 6.8) was prepared. After the solutions were prepared, the following two groups were set for determination: [table] After preparing according to the above table, the resulting solution was shaken in a water bath at 37° C. for 10 min, followed by adding 100 μL of enzyme solution and continuing to shake in the water bath at 37° C. for 10 min. Finally, 50 μL of Na2CO3 solution was added, and the absorbance was measured at 405 nm. The formula for calculating the α-glucosidase inhibition rate is as follows: [formula]
row,Substance,α-glucosidase inhibition rate [%]
1,"FALQGAAFLGSA (The sequence is synthetized) [SEQ ID NO: 3, small peptide screened from cooked millet prolamin]",17.67
2,"KAHAALGAK (The sequence is synthetized) [SEQ ID NO: 6, small peptide screened from cooked millet prolamin]",13.77
3,"KTGSGAEGMHGGK (The sequence is synthetized) [SEQ ID NO: 5, small peptide screened from cooked millet prolamin]",15.64
4,"QQQQLLR (The sequence is synthetized) [SEQ ID NO: 4, small peptide screened from cooked millet prolamin]",15.94

# The next lines start with the values.
row,α-glucosidase inhibition rate [%],Substance
1,31.57,"AGAGPQGRP (The sequence is synthetized) [SEQ ID NO: 2, small peptide screened from cooked millet prolamin]"
2,32.67,"QQLRPF (The sequence is synthetized) [SEQ ID NO: 1, small peptide screened from cooked millet prolamin]"
